Data as given in patent US20140123342A1, “Regulation of Stomatal Apertures by Apyrases and Extracellular Nucleotides” (BOARD OF REGENTS, THE UNIVERSITY OF TEXAS SYSTEM, priority 2011, published 2014).

Tested on: guard cells of x-luc1 and x-luc9 ecto-luciferase lines
Test: Ecto-luciferase luminescence imaging of extracellular ATP in epidermal peels
Format: cell-based, Arabidopsis thaliana
Settings: 10 μM
Text: Ecto-luciferase Construct and Plant Transformation: The nucleotide sequence for the 24 amino acid, cleavable signal peptide from the Brassica pollen coat protein, S-locus cysteine-rich protein (SCR13; AF195626) was used to target luciferase for secretion (Schopfer et al., 1999). The signal peptide was incorporated at the N-terminus of the luciferase gene by PCR and the SCR13 signal peptide modified luciferase PCR product was then ligated into the binary vector pLBJ21. This construct was then transformed into Agrobacterium tumefaciens strain GV3101 (pMP90) and then transformed into Arabidopsis plants (Col-0) using the floral dipping method (Clough and Bent, 1998). Transgenic plants were selected by planting on solidified Murashige and Skoog (MS) medium (4.3 g/L Murashige and Skoog salts (Sigma), 0.5% (w/v) MES, and 1.0% (w/v) agar, raised to pH 5.7 with 5 M KOH) containing 50 μg/mL kanamycin. Segregation of T3 generation on kanamycin plates was analysed in order to obtain homozygous lines. Plants showing kanamycin resistance were checked for luciferase activity by growing transgenic plants in MS medium for 10 days and then transferring the whole seedlings into test tubes. Luminescence measurements were performed by placing the test tubes in the light-tight housing of the luminometer reader (Dynatech). Experimental solutions with luciferin substrate with and without 1 mM ATP were injected by an automatic injector, and after 3 seconds counting started at 0.2 second time intervals.
Imaging of Luminescence in Ecto-luciferase Plants: Ecto-luciferase seeds were surface-sterilized, stratified in the dark in 4° C. for at least three days and then planted directly on a cellophane membrane placed upon solidified MS with 1.0% (w/v) agar. Planted plates were placed upright in a culture chamber and grown at 23° C. under 24-h fluorescent light for 7 days. Plates were then reoriented so that the solidified MS medium was at the bottom of the plate and the seedling was able to grow up into the empty space of the petri dish. Seedlings were then allowed to mature for up to 4 weeks under identical temperature and light settings. For “dark” studies petri dishes of 3-4 week old plants were placed in a dark chamber for 24 hours prior to use in the studies.
Mature basal leaves were excised from x-luc1 and x-luc9 plants 3-4 weeks old. Peels were taken and then immediately floated with the abaxial side up in 40 μL, of Arabidopsis leaf buffer on a microscope slide and the chemical being tested in either light or dark conditions depending on the experimental setup. The placing of the peels within their respective solution was considered time zero. Peels were treated for a minimum of 5 minutes before luciferin and flash buffer were added to the solution. […] Luminescence was integrated over 120 seconds, High Gain, Read Out set to slow, using 4×4 pixel binning with Cosmic Suppression on, Background Correction off, and Flatfield Correction off with the filter set to Photo.
All luminescence analysis was conducted using the indiGO Analysis Software (version 2.0.0.26). All images consisted of a photographic image in grayscale with an overlaid luminescence image in pseudo color. […]

CC1=CC(=O)CC(C)(C)[C@@]1(O)/C=C/C(C)=C\C(=O)O [ABA, abscisic acid]
ecto-luciferase luminescence in the location of stomata, average (5 min, x-luc9 peels, open stomata, light): 3.57 cps
ecto-luciferase luminescence after return to control levels (after 15 min of continuous exposure): about 0.80 cps
